Results as given in US20090048301A1 (IMCLONE SYSTEMS INCORPORATED, priority 2003, published 2009).

Key:
[1] = system: tumor vasculature; settings: Cancer Research 59, 1626 (1999); cited from earlier work
[2] = system: bovine tubulin; assay: In vitro tubulin polymerization assay (turbidity at 340 nm); assay type: biochemical; settings: 10 μM compound, 30 minute data point, vs 1% DMSO control
Summary of the method: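 Percent inhibition derives from turbidity (340 nm) at 30 min relative to 1% DMSO controls, read every minute at 37° C. Polymerization mix: 3 mg/ml bovine tubulin, <3% MAPs, in PIPES pH 7 G-PEM with 1 mM GTP, 1 mM MgCl2, 5% glycerol; enhancers also detectable.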

[3] = system: A431, human epidermoid carcinoma cells; assay: Cell cycle analysis (FACS), mitotic arrest in G2/M; assay type: cell-based; settings: Homo sapiens, A-431, 24 h, read-out: FACS Assay: concentration required to achieve inhibition in FACS assay
Summary of the method: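 A431 cells, 500,000/well at treatment, exposed to compounds at 0.01–1 μM final (0.1% DMSO) for 24 h. Ethanol-fixed cells RNase-treated (1 μg/ml, 37° C., 15 min), stained with propidium iodide (50 μg/ml, 30 min, RT). DNA ploidy by flow cytometry; mitotic arrest scored as G2/M accumulation.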

[4] = system: A431 human cancer cell line; assay: Sulphorhodamine B (SRB) growth inhibition assay; assay type: cell-based; settings: A-431, A431 cells, 48 hours, read-out: SRB Assay: μM required to inhibit tumor cell growth by 50% (GI50)
Summary of the method: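 A431 cells were seeded at 10,000 cells/well and preincubated 24 h, then exposed for 48 h at 37 °C, 5% CO2 to five log doses from 100 μM to 0.01 μM (final). After TCA fixation, SRB-stained protein was read at 515 nm. Percent growth was set against time-zero and DMSO control OD, and GI50 was taken at the 50% intercept.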

[5] = system: xenograft models; settings: Cancer Research 62, 3113, 2002; cited from earlier work
[6] = Cancer Research 61, 392, 2001; cited from earlier work
[7] = system: MDR cells; settings: Cancer Research 61, 392, 2001; cited from earlier work

Structure (SMILES) | Tubulin Assay: percent inhibition at 10 μM based on 30 minute data [2] [%] | minimal effective concentration [3] [µM] | GI50 [4] [µM] | further results
COc1ccc(/C=C\c2cc(OC)c(OC)c(OC)c2)cc1OP(=O)(O)O [Combretastatin A-4 phosphate] |  |  |  | effect on tumor vasculature and necrosis in mouse tumor models [1]: change endothelial cell morphology, shut down tumor vasculature, and induce tumor necrosis
c1cnc(NCc2ccc3c(c2)OCO3)c(-c2nnc(Nc3ccc4c(c3)OCO4)o2)c1 [Compound 181, {3-[5-(Benzo[1,3]dioxol-5-ylamino)-[1,3,4]oxadiazol-2-yl]-pyridin-2-yl}-benzo[1,3]dioxol-5-ylmethyl-amine] | 76 | 1 | 0.3 | 
COc1cc(CNc2ncccc2-c2nnc(Nc3ccc4c(c3)OCO4)o2)cc(OC)c1 [Compound 182, {3-[5-(Benzo[1,3]dioxol-5-ylamino)-[1,3,4]oxadiazol-2-yl]-pyridin-2-yl}-(3,5-dimethoxy-benzyl)-amine] | 84 | 1 | 0.2 | 
COc1cc(CNc2ncccc2-c2nnc(Nc3ccc(OC)c(OC)c3)o2)cc(OC)c1 [Compound 183, (3,5-Dimethoxy-benzyl)-{3-[5-(3,4-dimethoxy-phenylamino)-[1,3,4]oxadiazol-2-yl]-pyridin-2-yl}-amine] | 50 | 0.1 | 6 | 
c1cncc(CNc2ncccc2-c2nnc(Nc3ccc4c(c3)OCO4)o2)c1 [Compound 189, {3-[5-(Benzo[1,3]dioxol-5-ylamino)-[1,3,4]oxadiazol-2-yl]-pyridin-2-yl}-pyridin-3-ylmethyl-amine] | 89 | 0.1 | 0.6 | 
O=C1CCCN1CCCNc1ncccc1-c1nnc(Nc2ccc3c(c2)OCCO3)o1 [Compound 192, 1-(3-{3-[5-(2,3-Dihydro-benzo[1,4]dioxin-6-ylamino)-[1,3,4]oxadiazol-2-yl]-pyridin-2-ylamino}-propyl)-pyrrolidin-2-one] | 85 | 0.1 | 0.01 | 
COc1cc(Nc2ncccc2-c2nnc(Nc3ccc4c(c3)OCCO4)o2)cc(OC)c1 [Compound 193, {3-[5-(2,3-Dihydro-benzo[1,4]dioxin-6-ylamino)-[1,3,4]oxadiazol-2-yl]-pyridin-2-yl}-(3,5-dimethoxy-phenyl)-amine] | 69 | 0.01 | 0.01 | 
c1ccc(-c2nnc(Nc3ccc4c(c3)OCCO4)o2)c(NCc2ccncc2)c1 [Compound 215, (2,3-Dihydro-benzo[1,4]dioxin-6-yl)-(5-{2-[(pyridin-4-ylmethyl)-amino]-phenyl}-[1,3,4]oxadiazol-2-yl)-amine] | 100 | 0.01 | 10 | 
c1ccc(-c2nnc(Nc3ccc4c(c3)OCCO4)o2)c(NCc2cn[nH]c2)c1 [Compound 223, (2,3-Dihydro-benzo[1,4]dioxin-6-yl)-(5-{2-[(1H-pyrazol-4-ylmethyl)-amino]-phenyl}-[1,3,4]oxadiazol-2-yl)-amine] | 84 | 0.1 | 1.5 | 
COc1cccc(Nc2nnc(-c3ccccc3NCc3ccncc3)o2)c1 [Compound 228, (3-Methoxy-phenyl)-(5-{2-[(pyridin-4-ylmethyl)-amino]-phenyl}-[1,3,4]oxadiazol-2-yl)-amine] | 57 | 10 | 2 | 
COc1ccc2[nH]c(C(=O)c3ccccc3)cc2c1 [Compound D64131] |  |  |  | efficacy in xenograft models [5]: efficacious in xenograft models; oral activity [5]: orally active; toxicity [5]: no signs of toxicity
O=C(Nc1ccncc1)C(=O)c1cn(Cc2ccc(Cl)cc2)c2ccccc12 [Compound D-24851] |  |  |  | antitumor activity in vivo [6]: exert antitumor activity in vivo; neurotoxicity [6]: lacks neurotoxicity; efficacy toward MDR cells [7]: shows efficacy toward MDR cells
